Measurements as given in patent publication US9550978B2, “Isolation and functional identification of cells” (CAPROTEC BIOANALYTICS GMBH, priority 2010, dated 2017).

Columns and labels:
HT-1080 cells [1] = test: Specific magnetic isolation of selectively tagged cells (Example 3); format: cell-based, human; settings: control "con", free marimastat competitor
Experimental: After tagging and washing (method 2, see example 2b) the supernatant was removed from cultures “ver” and “con” and the cultures were treated with 200 μl non-enzymatic cell dissociation solution (Sigma), followed by 10 min incubation at room temperature. […] The cells were moved to two 200 μl PCR vials labelled “ver” and “con”, respectively.

HT-1080 cells [2] = test: Method 2: cell tagging with capture compound first, then streptavidin magnetic particles (Example 2b); format: cell-based, human; settings: culture "con", free marimastat competitor added first
Experimental: Cell culture supernatant of two cell cultures of adherent fibrosarcoma cells of cell line HT-1080 was prepared as described above (example 2a).
The cultures were spiked with 400 μl cell culture supernatant each. “Ver” received 20 μl water, control “con” received 20 μl 10 mM free marimastat (competitor), both cultures were swayed for mixing and incubated 3 min at room temperature, carefully keeping the cell layer wet at all times. During this step, the free marimastat in culture “con” binds to marimastat-binding proteins or protein complexes on the surface of cells and blocks their binding sites, preventing marimastat capture compounds from binding during the subsequent step. 2 μl 100 μmol/l marimastat capture compound was added to each culture, shaken gently and incubated 5 min at room temperature. Binding of the marimastat capture compound only happens on the cell surface proteins in culture “ver” (which are not blocked). The supernatant was removed from each, both cultures were washed with 400 μl fresh cell culture supernatant twice to remove excess marimastat capture compound, and 400 μl fresh cell culture supernatant was added each. 1 μl of 10 mg/ml strepatavidin coated magnetic particles of 1 μm diameter (Dynabeads MyOne Steptavidin C1 (Dynal)), was added to each culture, homogenized by swaying and incubated 30 min at room temperature. […]

MMP14 = biological target: T1, MMP14 (Homo sapiens, UniProt P50281); test: Capture Compound Mass Spectrometry (CCMS) identification of the marimastat-binding protein (Example 5b); settings: excess marimastat competitor
T1 construct: densely grown with adherent HT-1080 cells; endogenous in cells; host or cells: HT-1080 cells (adherent, not recombinant)
Experimental: In a repetition of the experiment described in example 5a, the magnetic particles after the wash buffer and water wash steps (end of 5a.ii) were additionally washed six times with 200 μl 80% acetonitrile and once with 200 μl ultrapure water. The proteins captured on the particles were digested by addition of 9 μl 50 mmol/l ammonium bicarbonate and 1 μl 0.5 mg/ml trypsin (Sequencing Grade, Roche, ProdNo. 11047841001) in 1 mmol/l HCl. The particles were kept in suspension in this solution by shaking (2000 rpm) at 37° C. over night. After magnetically separating the particles, the supernatant was evaporated and the contained tryptic peptides were analyzed by nanoLC-MS/MS after dissolving them in 0.1% formic acid (equipment: Easy-nLC liquid chromatography system; Proxeon Biosystems A/S and LTQ Orbitrap Velos mass spectrometer; Thermo Scientific). The peptide and protein identification by automated sequence database search was performed on the one hand using the search algorithms SEQUEST (implemented in the Proteome Discoverer software 1.2.0.208, Thermo Scientific) and X!Tandem (The Global Proteome Machine Organization; version 2007.01.01.1, implementiert in the Scaffold software, version 3_00_03, Proteome Software Inc.) or on the other hand using MaxQuant (version 1.1.1.25, Cox, J. and Mann, M. (2008) Nat Biotechnol 26, 1367-72.) for label-free quantification of proteins. […]

HT-1080 cells [3] = test: Immobilization of cells from suspension on streptavidin coated multititer plates (Example 4); format: cell-based, human; settings: mean of three samples
Experimental: HT-1080 cells (see above) were treated for 30 min in cell culture medium with calcein AM to fluorescently stain the cytosol and were provided in suspension (obtained by scraping off the adherent cells using a cell spatula) at a final concentration of ˜0.5*10^6/ml in culture medium. White blood cells (WBC) freshly obtained from a donor by lysis of erythrocytes and subsequent washing and resuspension were adjusted to a final concentration of ˜5*10^6/ml in phosphate buffered saline (PBS). 12-well multititer plates (streptavidin coated) were used for cell immobilization.
Samples of HT-1080 cells to be used as controls were treated with adjusted to 50 μmol/l free marimastat in medium by adding a stock solution (10 mM) of the competitor (samples marked “C”). Non-competitor verum samples are marked “A”.
Samples treated with marimastat capture compound in solution were adjusted to 0.5 μmol/l capture compound in medium from 20 μmol/l stock solution (samples labelled “ind”), or attached to the capture compound-treated streptavidin-coated surface (samples labelled “dir”).
For determining the influence on binding by activating the reactivity function by UV irradiation (samples labelled “UV”) in samples for indirect binding (first capture compound attaching to cells, then cells binding to surface), cells were irradiated for 1 min by a near UV laboratory source (λmax=310 nm, caproBox, caprotec bioanalytics GmbH, Berlin) in an uncoated well (or not for samples without UV irradiation), collected, spun down, washed, and transferred to a streptavidin-coated well (incubation time˜3 h). Samples for direct binding were brought into capture compound coated wells (prepared as described below) directly (incubation time˜3 h) and UV-irradiated therein (or not for samples without UV irradiation). For loading the streptavidin-coated microtiter plates with capture compound, the wells were rinsed repeatedly for 10 min with 10 μl of 20 μM marimastat capture compound per well in 200 μl PBS at room temperature; the supernatant was discarded and the wells were washed with PBS.
The medium over the cells bound to the surface was mainly removed (a minimum rest was left to cover the cells and not let the cells dry) and all wells were washed carefully two times with 1 ml medium. HT-1080 cells were counted by their calcein AM fluorescence using a Cellavista system. Values below are adjusted for HT-1080 cell numbers delivered onto the well (1.9*10^5).

[4] = biological target: T2, marimastat-binding protein on the cell surface of HT-1080 cells (Homo sapiens, UniProt P50281); test: Photochemical crosslink on cell surface, detection by streptavidin-horseradish peroxidase blot (Example 5a); settings: sample "C": 0.5 mmol/l marimastat competitor, UV irradiated
T2 construct: densely grown with adherent HT-1080 cells; endogenous in cells; host or cells: HT-1080 cells (adherent, not recombinant)
Experimental: Five times three sterile petri dishes with 3.5 cm diameter were densely grown with adherent HT-1080 cells (passage 10, see example 2 for medium and conditions). The cell culture supernatant was collected and 400 μl of this supernatant was again applied onto the cells such that the cells were covered with a layer of cell culture supernatant. Three of the petri dishes were labeled, respectively, “A”, “C”, “PD”, “PDC” and “noCC”. To “A”, “PD” and “noCC” were added 20 μl ultrapure water, respectively. To “C” and “PDC” were added 20 μl 10 mmol/l marimastat, respectively (0.5 mmol/l final concentration) and homogenized by swaying. To “A”, “C”, “PD” and “PDC” were added 2 μl 100 μmol/l marimastat capture compound (0.5 μmol/l final concentration) and homogenized by swaying. After a 2 min incubation, cells with supernatant of petri dishes “A”, “C” and “noCC” (open lids) were irradiated for 1 min with UV light (λmax=310 nm, caproBox, caprotec Bioanalytics GmbH, Berlin). Cells with supernatant of petri dishes “PD” and “PDC” were not irradiated but otherwise treated the same (incubated in caproBox for 1 min without irradiation). The supernatant was collected and discarded (in a repetition experiment, this supernatant was also analyzed as described in example 5b). […]

HT-1080 cells [5] = test: Marimastat-specific tagging of adherent cells by capture compound coated magnetic particles (Example 2a); format: cell-based, human; settings: culture "con", with free marimastat competitor; light microscopy
From the text: Cell culture supernatant (10% heat inactivated fetal calf serum (PAA Laboratories GmbH), 1× Penicillin/Streptomycin (PAA) in DMEM (Dulbecco's Modified Eagle Medium) High Glucose (4.5 g/l) with stable glutamin (PAA)) was removed from two cell cultures of adherent fibrosarcoma cells (cell line HT-1080 (ACC 315 Deutsche Sammlung von Mikroorganismen and Zellkulturen DSMZ Braunschweig; densely grown; 3.5 cm petri dish; passage 9) and added to further cell culture supernatant from a larger culture. The petri dish was closed to avoid drying of the cells.
20 μl 10 mg/ml strepatavidin coated magnetic particles of 1 μm diameter (Dynabeads MyOne Steptavidin C1 (Dynal)) (streptavidin magnetic particles or particles in the following) were mixed with 10 μl 100 μM marimastat capture compound V (caprotec bioanalytics GmbH)
[drawing 4] and incubated 10 min at room temperature. The particles were collected at the inner vial wall by applying a strong magnet (caproMag, caprotec bioanalytics GmbH, containing a 150×9×7 mm neodymium magnet (NdFeB) of quality N52 (1.43 Tesla)), and the supernatant was discarded. The particles were resuspended in 500 μl HT-1080 cell culture supernatant, collected magnetically anew and resuspended in 200 μl water, giving a 1 mg/ml marimastat capture compound-particle suspension. […]

`CNC(=O)[C@@H](NC(=O)[C@H](CC(C)C)[C@H](O)C(=O)NO)C(C)(C)C` [marimastat] was tested, and the “retention of tagged cells at vial wall by magnet” value (HT-1080 cells [1]) was “mostly sunk to the bottom of the vial”, the “particle tagging of cells after washing” value (HT-1080 cells [2]) was “little or no particles are visible” and the “MMP14 capture in presence of competitor (MaxQuant analysis)” value (MMP14) was “completely suppressed”. For the same compound, the “Percent input cells recovered” value (HT-1080 cells [3]; C dir (no UV): direct binding, marimastat excess competitor, no UV) was 14.5 (standard deviation of Percent, the “Percent input cells recovered” value (HT-1080 cells [3]; C dir UV: direct binding, marimastat excess competitor, UV activated) was 7.9 (standard deviation of Percent and the “Percent input cells recovered” value (HT-1080 cells [3]; C ind (no UV): indirect binding, marimastat excess competitor, no UV) was 1.1 (standard deviation of Percent. For the same compound, the “Percent input cells recovered” value (HT-1080 cells [3]; C ind UV: indirect binding, 50 μmol/l free marimastat competitor, UV activated) was 0.7 (standard deviation of Percent, the “blot signal of protein photochemically crosslinked with the capture compound” value [4] was “the signal is absent” and the “tagging of cells on their surface by particles after washing” value (HT-1080 cells [5]) was “not marked, or to only very little extent”.
